In patent publication US20250025443A1, “COMPOUNDS AND METHODS FOR TREATING CORONA VIRUSES” (CLEAR CREEK BIO, INC., priority 2021, published 2025):

Each compound was assayed against SARS-CoV-2 Papain-Like Protease (PLpro) (Severe acute respiratory syndrome coronavirus 2 (2019-nCoV) (SARS-CoV-2), UniProt P0DTD1) (assay: biochemical). Conditions: PLpro 6.25 nM, substrate 25 μM, 60 min at 25° C.; for more potent compounds PLpro 1 nM, 120 min; read-out: PLpro IC50.
`Cc1ccc(NC2CNC2)cc1C(=O)NC(C)c1cccc2c1CCCC2` (stereo not shown) [Compound 172, 5-(Azetidin-3-ylamino)-2-methyl-N-(1-(5,6,7,8-tetrahydronaphthalen-1-yl)ethyl)benzamide] gave an IC50 of over 5 µM. Work on `Cc1ccc(NC2CNC2)cc1C(=O)NC(C)c1cccc2c1OCCO2` (stereo not shown) [Compound 168, 5-(Azetidin-3-ylamino)-N-(1-(2,3-dihydrobenzo[b][1,4]dioxin-5-yl)ethyl)-2-methylbenzamide] yielded an IC50 of over 5 µM.

Same assay, conditions: PLpro enzymatic fluorescence assay; class symbols; read-out: PLpro IC50
Work on `C=Cc1cc(C2(NC(=O)c3cc(OC[C@@H]4CCN4C)c(NC)cc3C)CC2)c2cccnc2c1` [Compound 745, (S)-2-Methyl-4-(methylamino)-5-((1-methylazetidin-2-yl)methoxy)-N-(1-(7-vinylquinolin-5-yl)cyclopropyl)benzamide] yielded an IC50 of under 0.1 µM. For `CC(=O)c1ccc(-c2cc(C3(NC(=O)c4cc(OC[C@@H]5CCN5C)ccc4C)COC3)c3cccnc3c2)s1` [Compound 821, (S)-N-(3-(7-(5-Acetylthiophen-2-yl)quinolin-5-yl)oxetan-3-yl)-2-methyl-5-((1-methylazetidin-2-yl)methoxy)benzamide], the IC50 was under 0.1 µM. Compound `[2H]C([2H])([2H])N1CC[C@H]1COc1ccc(C)c(C(=O)NC2(c3cc(-c4cnc(C)o4)cc4ncccc34)CC2)c1` [Compound 782, (S)-2-Methyl-5-((1-(methyl-d3)azetidin-2-yl)methoxy)-N-(1-(7-(2-methyloxazol-5-yl)quinolin-5-yl)cyclopropyl)benzamide] has an IC50 of under 0.1 µM. `Cc1ccc(OCC2CCN2C)cc1C(=O)NC1(c2cccc3ccc(F)cc23)CC1` (stereo not shown) [Compound 444, N-(1-(7-Fluoronaphthalen-1-yl)cyclopropyl)-2-methyl-5-((1-methylazetidin-2-yl)methoxy)benzamide] gave an IC50 of under 0.1 µM. `Cc1ccc(OC[C@@H]2CCN2C)cc1C(=O)NC1(c2cc(N3CCCC3)cc3ncccc23)CC1` [Compound 683, (S)-2-Methyl-5-((1-methylazetidin-2-yl)methoxy)-N-(1-(7-(pyrrolidin-1-yl)quinolin-5-yl)cyclopropyl)benzamide] was tested, and the IC50 was under 0.1 µM. `Cc1ccc(OC[C@@H]2CCN2C)cc1C(=O)NC1(c2cc(-c3ccnn3C)cc3ncccc23)CC1` [Compound 578, (S)-2-Methyl-N-(1-(7-(1-methyl-1H-pyrazol-5-yl)quinolin-5-yl)cyclopropyl)-5-((1-methylazetidin-2-yl)methoxy)benzamide] gave an IC50 of under 0.1 µM. With `Cc1ccc(OC[C@@H]2CCN2)cc1C(=O)NC1(c2cc(-c3cc[nH]n3)cc3ncccc23)CC1` [Compound 636, (S)-N-(1-(7-(1H-Pyrazol-3-yl)quinolin-5-yl)cyclopropyl)-5-(azetidin-2-ylmethoxy)-2-methylbenzamide] the IC50 was under 0.1 µM. Compound `C=Cc1cc(C2(NC(=O)c3cc(OC[C@H](C)NC)ccc3C)CC2)c2cccnc2c1` [Compound 661, (S)-2-Methyl-5-(2-(methylamino)propoxy)-N-(1-(7-vinylquinolin-5-yl)cyclopropyl)benzamide] has an IC50 of under 0.1 µM. Work on `CNc1cc(C2(NC(=O)c3cc(OC[C@@H]4CCN4C)ccc3C)CC2)c2cccnc2c1` [Compound 763, (S)-2-Methyl-N-(1-(7-(methylamino)quinolin-5-yl)cyclopropyl)-5-((1-methylazetidin-2-yl)methoxy)benzamide] yielded an IC50 of under 0.1 µM. `COc1cc(C2(NC(=O)c3cc(OC[C@H]4CCN4)ccc3C)CC2)c2cccnc2c1` [Compound 554, (R)-5-(Azetidin-2-ylmethoxy)-N-(1-(7-methoxyquinolin-5-yl)cyclopropyl)-2-methylbenzamide] was tested, and the IC50 was under 0.1 µM.

Same assay, conditions: SARS-CoV-2 PLpro enzymatic fluorescence assay; read-out: PLpro IC50
Compound `Cc1ccc(OC[C@@H]2CCN2C)cc1C(=O)NC1(c2cc(Cl)nc3cc(F)ccc23)CC1` [Compound 586, (S)-N-(1-(2-Chloro-7-fluoroquinolin-4-yl)cyclopropyl)-2-methyl-5-((1-methylazetidin-2-yl)methoxy)benzamide] has an IC50 of under 0.1 µM. In the case of `CNCCOc1ccc(C)c(C(=O)NC2(c3cc(OC)cc4ncccc34)CC2)c1` [Compound 526, N-(1-(7-Methoxyquinolin-5-yl)cyclopropyl)-2-methyl-5-(2-(methylamino)ethoxy)benzamide], the IC50 is reported as under 0.1 µM. `Cc1ccc(N)cc1C(=O)NC1(c2cccc3ccccc23)COC1` [Compound 191, 5-Amino-2-methyl-N-(3-(naphthalen-1-yl)oxetan-3-yl)benzamide] gave an IC50 of 0.1 to 1 µM. With `Cc1ccc2c(C3(NC(=O)c4cc(OC[C@@H]5CCN5C)ccc4C)CC3)cccc2n1` [Compound 547, (S)-2-Methyl-5-((1-methylazetidin-2-yl)methoxy)-N-(1-(2-methylquinolin-5-yl)cyclopropyl)benzamide] the IC50 was under 0.1 µM. Compound `CN(C)CCOc1ccc(C2CC2)c(C(=O)NC2(c3cccc4ccccc34)CC2)c1` [Compound 353, 2-Cyclopropyl-5-(2-(dimethylamino)ethoxy)-N-(1-(naphthalen-1-yl)cyclopropyl)benzamide] has an IC50 of over 5 µM. `Cc1ccc(OCCN2CC(F)C2)cc1C(=O)NC1(c2cccc3ccccc23)CC1` [Compound 300, 5-(2-(3-Fluoroazetidin-1-yl)ethoxy)-2-methyl-N-(1-(naphthalen-1-yl)cyclopropyl)benzamide] gave an IC50 of under 0.1 µM. Compound `Cc1ccc(OCCN(C)C)cc1C(=O)NC1(c2cccc(-c3ccsc3)c2)CC1` [Compound 325, 5-(2-(Dimethylamino)ethoxy)-2-methyl-N-(1-(3-(thiophen-3-yl)phenyl)cyclopropyl)benzamide] has an IC50 of 0.1 to 1 µM. `Cc1cc2cc(CN(C)C)[nH]c2cc1C(=O)NC1(c2cccc3ccccc23)CC1` [Compound 173, 2-((Dimethylamino)methyl)-5-methyl-N-(1-(naphthalen-1-yl)cyclopropyl)-1H-indole-6-carboxamide] showed an IC50 of 0.1 to 1 µM. `Cc1cc2cn(C3CNC3)nc2cc1C(=O)NC1(c2cccc3ccccc23)CC1` [Compound 305, 2-(Azetidin-3-yl)-5-methyl-N-(1-(naphthalen-1-yl)cyclopropyl)-2H-indazole-6-carboxamide] showed an IC50 of 0.1 to 1 µM. For `Cc1ccc(Nc2cn[nH]c2)cc1C(=O)N[C@H](C)c1cccc2ccccc12` [Compound 121, (R)-5-((1H-Pyrazol-4-yl)amino)-2-methyl-N-(1-(naphthalen-1-yl)ethyl)benzamide], the IC50 was 1 to 5 µM. In the case of `Cc1cc2nc(C3CNC3)[nH]c2cc1C(=O)N[C@H](C)c1cccc2ccccc12` [Compound 131, (R)-2-(Azetidin-3-yl)-5-methyl-N-(1-(naphthalen-1-yl)ethyl)-1H-benzo[d]imidazole-6-carboxamide], the IC50 is reported as 1 to 5 µM. For `CC(=O)NCCOc1ccc(C)c(C(=O)NC2(c3cccc4ccccc34)CC2)c1` [Compound 425, 5-(2-Acetamidoethoxy)-2-methyl-N-(1-(naphthalen-1-yl)cyclopropyl)benzamide], the IC50 was 0.1 to 1 µM. `Cc1ccc(OC2CNC(C)(C)C2)cc1C(=O)NC1(c2cccc3ccccc23)CC1` (stereo not shown) [Compound 533, 5-((5,5-Dimethylpyrrolidin-3-yl)oxy)-2-methyl-N-(1-(naphthalen-1-yl)cyclopropyl)benzamide] showed an IC50 of under 0.1 µM. `Cc1ccc(OCC2CCN2C)cc1C(=O)NC1(c2cccc3ccc(O)cc23)CC1` (stereo not shown) [Compound 477, N-(1-(7-Hydroxynaphthalen-1-yl)cyclopropyl)-2-methyl-5-((1-methylazetidin-2-yl)methoxy)benzamide] gave an IC50 of under 0.1 µM. With `Cc1ccc(OCCN(C)C)cc1C(=O)NC1(c2cccc(C)c2C)CC1` [Compound 318, 5-(2-(Dimethylamino)ethoxy)-N-(1-(2,3-dimethylphenyl)cyclopropyl)-2-methylbenzamide] the IC50 was 1 to 5 µM. Compound `COc1cc(C2(NC(=O)c3cc(OC[C@@H]4CCCCN4)ccc3C)CC2)c2cccnc2c1` [Compound 550, (S)-N-(1-(7-Methoxyquinolin-5-yl)cyclopropyl)-2-methyl-5-(piperidin-2-ylmethoxy)benzamide] has an IC50 of under 0.1 µM. `Cc1cc2cc(CN)[nH]c2cc1C(=O)NC(C)(C)c1cccc2ccccc12` [Compound 281] was tested, and the IC50 was over 5 µM. `Cc1ccc(OCCN)cc1C(=O)NC1(c2cccc3ncccc23)CC1` [Compound 374, 5-(2-Aminoethoxy)-2-methyl-N-(1-(quinolin-5-yl)cyclopropyl)benzamide] gave an IC50 of under 0.1 µM. `Cc1cc(C2(NC(=O)c3cc(OCC(C)N)ccc3C)CC2)c2ccccc2c1` (stereo not shown) [Compound 481, 5-(2-Aminopropoxy)-2-methyl-N-(1-(3-methylnaphthalen-1-yl)cyclopropyl)benzamide] gave an IC50 of under 0.1 µM.
